Assay results from patent US20200276174A1, “CYCLIN-DEPENDENT KINASE INHIBITORS IN COMBINATION WITH ANTHRACYCLINES FOR TREATMENT OF CANCER” (TOLERO PHARMACEUTICALS, INC., priority 2018, published 2020).
Several values for one entry are separate records, joined by “and”; a condition that tells them apart may be missing. Equal entries are not always repeated. Where two headings read alike, the source gives them in different places. Each block holds one compound with its values, some of them ahead of it.

Tests used:
[1] = statement only; prodrugs described in WO 2016/187316; cited from earlier work
[2] = tested on: AML cell lines (OCI-AML3, U937, Molm-13, MV4-11); assay: 72-hour viability assay using CellTiter-Glo, single agents in AML cell lines; format: cell-based; settings: for comparison of IC50s/activity across cell lines: single agent; for IC50: read-out: single agent IC50 values
Procedure: (A) OCI-AML3, (B) U937, (C) Molm-13, and (D) MV4-11 cells were treated with alvocidib, cytarabine, or daunorubicin, as single agents, in viability assays using CellTiter-Glo according to manufacturer protocol.

MV4-11 AML xenograft = MV4-11 AML xenograft model; format: in vivo, female athymic nude mice
Procedure: Alvocidib with a cytarabine and daunorubicin regimen were tested in vivo in the MV4-11 AML xenograft model using female athymic nude mice.
ACD (alvocidib+cytarabine+daunorubicin) is an active regimen in MV4-11 AML xenografts. (A) Tumor volume measurements show decreases following the sequential dosing of alvocidib (qdx2), cytarabine (qdx2), and daunorubicin (qdx1). This five day cycle was repeated twice. […] Doses indicated in mg/kg.
Treatment of alvocidib (1.25 mg/kg) yielded 60.0% TGI.

previously untreated AML = settings: for MRD− (%) / MRD−, number of patients: of all patients evaluable for response
Procedure: The starting dose of alvocidib is 20 mg/m^2 as a 30-minute intravenous (IV) bolus followed by 30 mg/m^2 over 4 hours as an IV infusion administered daily on Days 1-3 of induction. The dose of alvocidib administered in the IV infusion is escalated in 10 mg/m^2 increments to 60 mg/m^2 to determine the maximum tolerated dose and to identify any dose limiting toxicity.
Beginning on Day 5, cytarabine is administered as a 100 mg/m^2/day continuous IV infusion for seven consecutive days (Days 5-11) plus daunorubicin administered at a bolus dosage of 60 mg/m^2 IV on Days 5-7.
The key eligibility criteria were: ages 18-65 years, previously untreated AML, ECOG PS 0-2, and no major organ dysfunction. Treatment consisted of increasing dose levels of alvocidib starting at 20 mg/m^2 as a 30-minute IV bolus followed by 30 mg/m^2 over 4 hours on days 1-3, cytarabine 100 mg/m^2/day by continuous IV infusion on days 5-11, followed by (e.g., followed about 30 minutes later by) daunorubicin 60 mg/m^2 IV on days 5-7. Dose escalation portion was assessed by standard 3+3 design. All patients received a day 14 bone marrow biopsy. Reinduction therapy with alvocidib (same dose as induction) days 1-3, followed by cytarabine 100 mg/m^2/day continuous IV on days 5-9, and daunorubicin 45 mg/m^2 IV days 5-6 was recommended in patients with >10% and >5% cellularity and blasts, respectively.

[3] = tested on: MCL-1 expression in MV4-11 cells; assay: MCL-1 expression during the alvocidib+cytarabine+daunorubicin regimen modeled in vitro; format: cell-based; settings: alvocidib 80 nM, washed out prior to cytarabine (100 nM) addition, daunorubicin 3 nM, in sequence
Procedure: MCL-1 expression during the alvocidib+cytarabine+daunorubicin regimen was modeled in vitro. MV4-11 cells were treated with alvocidib (80 nM), cytarabine (100 nM), or daunorubicin (3 nM), in the sequence shown. Alvocidib (or palbociclib) was washed out prior to cytarabine addition.

[4] = Intermediate- and High-risk, evaluable for MRD status N = 9, alvocidib plus 7+3
[5] = Intermediate- and High-risk, evaluable for response N = 10, alvocidib plus 7+3
[6] = Intermediate- and High-risk, alvocidib plus 7+3
[7] = 72-hour viability, CellTiter-Glo, one range printed for all three agents over OCI-AML3, U937, Molm-13, MV4-11

Compound: CN1CC[C@H](c2c(OP(=O)(O)O)cc(O)c3c(=O)cc(-c4ccccc4Cl)oc23)[C@H](O)C1 [Structural Formula I]
oral bioavailability [1]: orally bioavailable

Compound: COc1cccc2c1C(=O)c1c(O)c3c(c(O)c1C2=O)C[C@@](O)(C(C)=O)C[C@@H]3O[C@H]1C[C@H](N)[C@H](O)[C@H](C)O1 [daunorubicin]
comparison of IC50s/activity across cell lines ([2]; 72-hour viability): differing activities in Molm-13, in comparison to OCI-AML3
IC50 ([2]; 72 h): 2.2 to 567 nM
tumor growth inhibition (TGI) (MV4-11 AML xenograft; single agent daunorubicin 0.5 mg/kg): 21.1%

Compound: CN1CC[C@H](c2c(O)cc(O)c3c(=O)cc(-c4ccccc4Cl)oc23)[C@H](O)C1 [alvocidib]
MRD− (%) (previously untreated AML; All Risks, alvocidib plus 7+3): (67) %
MRD−, number of patients (previously untreated AML; All Risks, alvocidib plus 7+3): 10/15
MRD− Evaluable, number of patients (previously untreated AML; All Risks, patients evaluable for MRD status N = 14, alvocidib plus 7+3): 10/14
CR/CRi, number of patients (previously untreated AML; All Risks, patients evaluable for response N = 15, alvocidib plus 7+3, all dose levels): 12/15 and 12
MRD− Evaluable (%) (previously untreated AML; [4]): (56) %
MRD− Evaluable, number of patients (previously untreated AML; [4]): 5/9
CR/CRi (%) (previously untreated AML; [5]): (70) %
CR/CRi, number of patients (previously untreated AML; [5]): 7
MRD− (%) (previously untreated AML; [6]): (50) %
MRD−, number of patients (previously untreated AML; [6]): 5/10
MTD, IV bolus part (previously untreated AML; human, in vivo, iv): 30 mg/m^2
MTD, infusion part (previously untreated AML; human, in vivo, iv): 60 mg/m^2
MRD Status (previously untreated AML; per patient, alvocidib dose level 20, 30 mg/m^2 (bolus, infusion) days 1-3, then 7+3): Negative
MRD Status (previously untreated AML; per patient, alvocidib dose level 30, 40 mg/m^2 (bolus, infusion) days 1-3, then 7+3): Negative
Best Response (previously untreated AML; per patient, alvocidib dose level 30, 60 mg/m^2 (bolus, infusion) days 1-3, then 7+3, PD = progression of disease): CRi
IC50 [2, 7]: 2.2 to 567 nM
MCL-1 expression [3]: suppresses MCL-1 expression throughout the treatment regimen of cytarabine and daunorubicin
tumor growth inhibition (TGI) (MV4-11 AML xenograft; alvocidib 1.25 mg/kg): 60.0%

IC50 [2, 7]: 2.2 to 567 nM
Compound: Nc1ccn([C@@H]2O[C@H](CO)[C@@H](O)[C@@H]2O)c(=O)n1 [cytarabine]
comparison of IC50s/activity across cell lines ([2]; 72-hour viability): differing activities in Molm-13, in comparison to OCI-AML3
tumor growth inhibition (TGI) (MV4-11 AML xenograft; single agent cytarabine 60 mg/kg): 48.5%
